Experimental data: article PMC6201908, “Affinity, potency, efficacy, and selectivity of neurokinin A analogs at human recombinant NK2 and NK1 receptors” (PLoS ONE, 2018)
pEC50, pKi: −log10 of the molar value. Like-named read-outs stand apart in the source and are kept apart here. Non-standard residues stand in square brackets, D forms with d. Residues, ends and D or L forms follow the SMILES beside them. NMeL = CN[C@@H](CC(C)C)C(=O)O; Nle = CCCC[C@H](N)C(=O)O; βAla = NCCC(=O)O

Tests used:
[1] = target: T1, human recombinant NK2 receptors (Homo sapiens, UniProt P21452); assay: Displacement of [^125I]-NKA binding to CHO-hNK2 membranes; conditions: for pKi: [^125I]-NKA binding pKi; for [^125I]-NKA binding Slope: Hill slope of displacement curve; for NK1/NK2 ratio of Ki values: NK1 [^3H]-Septide Ki / NK2 [^125I]-NKA Ki
T1 sequence (P21452 1-398): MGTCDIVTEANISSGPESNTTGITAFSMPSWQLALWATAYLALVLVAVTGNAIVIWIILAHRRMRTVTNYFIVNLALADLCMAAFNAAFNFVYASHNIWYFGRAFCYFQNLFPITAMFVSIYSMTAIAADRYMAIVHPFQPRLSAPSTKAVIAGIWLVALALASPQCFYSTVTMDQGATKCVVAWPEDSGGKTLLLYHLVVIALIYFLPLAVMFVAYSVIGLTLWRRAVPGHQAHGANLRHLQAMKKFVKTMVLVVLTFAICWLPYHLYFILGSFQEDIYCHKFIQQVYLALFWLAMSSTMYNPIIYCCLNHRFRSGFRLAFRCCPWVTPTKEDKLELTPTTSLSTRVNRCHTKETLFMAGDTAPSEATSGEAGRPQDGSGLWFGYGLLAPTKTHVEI

[2] = target: T2, human recombinant NK1 receptors (Homo sapiens, UniProt P25103); assay: cell-based
Method: (§1) Human recombinant NK2 and NK1 receptors were generated using stably transfected CHO cells (CHO-hNK2 and CHO-hNK1, respectively). Human NK2 or NK1 receptor expressing vectors from Genecopeia (Rockville, USA) were transfected in CHO cells using the standard FuGENE protocol and cells were selected using 450 μg/mL geneticin (G418). Clones expressing the receptors were selected by functional coupling to calcium using FLIPR and a single clone for each receptor subtype was selected for expansion and stable cell line generation. Cells were cultured in a humidified incubator with 5% CO2 in F12K medium containing 10% heat inactivated FBS and 450 μg/mL geneticin and passaged on reaching 80–90% confluence.
(§2) The agonist efficacy of the test compounds at recombinant human NK1 or NK2 receptors expressed in CHO cells was assessed by measuring the intracellular calcium response using the calcium-sensitive dye Fluo-4 AM (Eugene, OR, USA) and a Fluorometric Imaging Plate Reader (FLIPR, Molecular Devices, CA, USA). CHO-hNK1 and CHO-hNK2 cells were seeded into black walled clear-bottom 384-well plates at a density of 10,000 and 15,000 cells per well in 50 μL culture media, respectively, and grown overnight at 37°C in a humidified CO2-incubator. Cells were washed in washing buffer using an EMBLA 384 plate washer, leaving 20 μL of buffer per well after the final aspiration. Cells were then incubated at 37°C with the cytoplasmic Ca^2+ indicator Fluo-4 AM (final concentration 1 μM) in assay buffer (20 mM HEPES, 145 mM NaCl, 5 mM KCl, 5.5 mM glucose, 1 mM MgCl2 and 2 mM CaCl2, pH 7.4, 0.05% Pluronic F-127 and 0.1% BSA) containing 2.5 mM probenecid for 45–60 min (cell loading). Cells were then washed 3 times in washing buffer (20 mM HEPES, 145 mM NaCl, 5 mM KCl, 5.5 mM glucose, 1 mM MgCl2 and 2 mM CaCl2, pH 7.4 and 2.5 mM probenecid) using an EMBLA 384 plate washer, leaving 30 μL of buffer in each well after the last wash. Loaded cell plates were transferred to the FLIPR and calcium responses were monitored as described below. […] Concentration response curves of test compounds were generated in duplicate on at least two different occasions from the same stock solutions. Test solutions were prepared from 10 mM stock solutions in DMSO and 1 μL of each solution was stamped into V-bottom assay plates containing 49 μL assay buffer. The final concentration of DMSO was 0.5% in each well.

[3] = target: T1, human recombinant NK2 receptors; assay: cell-based; conditions: for NK1/NK2 ratio of EC50s for intracellular calcium response: NK1 EC50 / NK2 EC50
Method: as §1, §2

[4] = target: T2, human recombinant NK1 receptors; assay: Displacement of [^3H]-Septide binding to CHO-hNK1 membranes (septide site); conditions: for [^3H]-Septide binding pKi / [^3H]-Septide binding Slope: 5.0 nM [^3H]-Septide, 23°C, 1 h, mean ± SD; for [^3H]-Septide binding pKi: CHO-hNK1 membranes 20 μg/well; for [^3H]-Septide binding Slope: Hill slope of displacement curve
Method: Protein expression was induced by addition of 5 mM sodium butyrate to the culture medium. […] The cell suspension was collected, placed on ice and centrifuged for 5 min at 4°C and 1200 rpm in a Beckman GS6R centrifuge. After removal of the supernatant the cell pellet was washed and collected by re-suspension in PBS and centrifugation. The final pellet was weighed and frozen at -80°C until use. Frozen pellets were thawed and homogenized in 10 volumes (w/v) of membrane preparation buffer (50 mM HEPES pH 7.4, 1 mM EDTA, 50 μg/mL bacitracin and protease inhibitors) using a Polytron Ultraturrax (twice for 15 s per cycle). The homogenate was centrifuged for 20 min at 4°C and 18500 rpm in a SL-50T Sorvall rotor and the pellet was re-suspended in membrane preparation buffer and re-homogenized as before. After centrifugation for 20 min at 4°C and 18500 rpm, the pellets were re-suspended in 5 volumes of membrane preparation buffer and divided into aliquots before freezing at -80°C. Protein concentration was determined using BioRad Protein Assay (Milan, Italy) with a BSA standard curve. Stock solutions of test compounds (10 mM) were prepared in DMSO and stored at -20°C until use. […] The goodness of fit between One-Site and Two-Site models was examined using Akaike's Information Corrected Criteria (AICC; [23]) in SAS v9.4 (SAS Institute, Cary NC) in order to select the best model for the data generated. […] Data from displacement experiments were plotted as the log [inhibitor concentration] (X axis) versus response expressed as TB in cpm (Y axis).

[5] = Intracellular Ca^2+ pEC50, CHO-hNK2 cells, mean ± SD
[6] = NK2 EC50 intracellular calcium response, CHO-hNK2 cells
[7] = 0.1 nM [^125I]-NKA, CHO-hNK2 membranes 6 μg/well, 23°C, 3 h, mean ± SD
[8] = 0.1 nM [^125I]-NKA, 23°C, 3 h, mean ± SD
[9] = CHO-hNK1 cells, % of maximal response observed with substance P, mean ± SD
[10] = CHO-hNK2 cells, % of maximal response observed with NKA, mean ± SD
[11] = Intracellular Ca^2+ pEC50, CHO-hNK1 cells, mean ± SD
[12] = NK1 EC50 intracellular calcium response, CHO-hNK1 cells

T2 sequence (P25103 whole entry): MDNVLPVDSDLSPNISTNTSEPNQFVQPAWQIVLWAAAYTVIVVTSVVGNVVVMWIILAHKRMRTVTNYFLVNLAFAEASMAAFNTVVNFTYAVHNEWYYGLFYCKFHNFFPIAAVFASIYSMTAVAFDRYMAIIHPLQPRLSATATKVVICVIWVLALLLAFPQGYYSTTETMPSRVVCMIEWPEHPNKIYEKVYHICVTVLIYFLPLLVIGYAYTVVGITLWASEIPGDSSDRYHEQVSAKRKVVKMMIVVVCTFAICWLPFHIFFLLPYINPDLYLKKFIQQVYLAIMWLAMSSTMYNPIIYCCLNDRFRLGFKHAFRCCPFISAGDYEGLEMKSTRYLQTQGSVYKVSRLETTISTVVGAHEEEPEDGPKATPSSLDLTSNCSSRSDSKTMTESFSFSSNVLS

Row | SMILES | Intracellular Ca^2+ % Max [2] | pEC50 [3, 5] | pEC50 [3, 6] | pEC50 [2, 11] | pEC50 [2, 12] | Intracellular Ca^2+ % Max [3] | other results
1 | CSCC[C@H](NC(=O)[C@H](CC(C)C)NC(=O)CNC(=O)[C@@H](NC(=O)[C@H](Cc1ccccc1)NC(=O)[C@H](CO)NC(=O)[C@@H](N)CC(=O)O)C(C)C)C(N)=O [NKA(4–10), Asp-Ser-Phe-Val-Gly-Leu-Met-NH2] | 117.4 ± 12.8% | 8.99 | 8.99 |  |  |  | pKi [1]: 8.63
2 | CCCC[C@H](NC(=O)[C@H](CC(C)C)N(C)C(=O)CNC(=O)[C@@H](NC(=O)[C@H](Cc1ccccc1)NC(=O)[C@H](CCCNC(=N)N)NC(=O)[C@@H](N)CC(=O)O)C(C)C)C(N)=O [[Arg^5,MeLeu^9,Nle^10]-NKA(4-10), Asp-Arg-Phe-Val-Gly-(NMe-Leu)-Nle-NH2] (H-DRFVG[NMeL][Nle]-NH2; N-terminus assumed) |  | 10.08 |  |  |  |  | [^125I]-NKA binding pKi [1, 7]: 9.23 ± 0.19; [^125I]-NKA binding Slope [1, 8]: -0.86 ± 0.09; NK1/NK2 ratio of Ki values [1]: 561; Fold more selective for NK2 over septide site of NK1 receptor compared with NKA (binding) ([1]; from Ki ratios): more than 28 fold; [^3H]-Septide binding pKi [4]: 6.48 ± 0.05; [^3H]-Septide binding Slope [4]: -0.89 ± 0.13; pKi ([4]; displacement of [^3H]-Septide binding, read-out: NK1 [^3H]-Septide Ki): 6.48; Intracellular Ca^2+ % Max [2, 9]: 100.4 ± 1.5%; Intracellular Ca^2+ pEC50 ([2]; CHO-hNK1 cells, mean ± SD): 8.23 ± 0.32; Difference between pEC50 and pKi values ([2]; NK1 receptors, calcium response vs [^3H]-Septide binding): 56 fold; Intracellular Ca^2+ % Max [3, 10]: 89.0 ± 15.5%; NK1/NK2 ratio of EC50s for intracellular calcium response [3]: 70
3 | CSCC[C@H](NC(=O)[C@H](CC(C)C)N(C)C(=O)CNC(=O)[C@@H](NC(=O)[C@H](Cc1ccccc1)NC(=O)[C@H](CCCNC(=N)N)NC(=O)[C@@H](N)CC(=O)O)C(C)C)C(N)=O [[Arg^5,MeLeu^9]-NKA(4-10), Asp-Arg-Phe-Val-Gly-(NMe-Leu)-Met-NH2] (H-DRFVG[NMeL]M-NH2) |  | 9.79 |  |  |  |  | [^125I]-NKA binding Slope [1, 8]: -0.90 ± 0.07; NK1/NK2 ratio of Ki values [1]: 174; pKi [1, 7]: 9.90; [^3H]-Septide binding pKi [4]: 7.68 ± 0.16; [^3H]-Septide binding Slope [4]: -0.75 ± 0.03; Intracellular Ca^2+ % Max [2, 9]: 99.9 ± 13.3%; Intracellular Ca^2+ pEC50 ([2]; CHO-hNK1 cells, mean ± SD): 9.52 ± 0.29; Intracellular Ca^2+ % Max [3, 10]: 111.5 ± 3.7%; NK1/NK2 ratio of EC50s for intracellular calcium response [3]: 2
4 | CCCC[C@H](NC(=O)[C@H](CC(C)C)NC(=O)CNC(=O)[C@@H](NC(=O)[C@H](Cc1ccccc1)NC(=O)[C@H](CCCNC(=N)N)NC(=O)[C@@H](N)CC(=O)O)C(C)C)C(N)=O [[Arg^5,Nle^10]-NKA(4–10), Asp-Arg-Phe-Val-Gly-Leu-Nle-NH2] (H-DRFVGL[Nle]-NH2) |  | 9.70 | 9.70 | 8.77 | 8.77 |  | 
5 | CCCC[C@H](NC(=O)[C@H](CC(C)C)NC(=O)CCNC(=O)[C@@H](NC(=O)[C@H](Cc1ccccc1)NC(=O)[C@H](CCCNC(=N)N)NC(=O)[C@@H](N)CC(=O)O)C(C)C)C(N)=O [[Arg^5,β-Ala^8,Nle^10]-NKA(4–10), Asp-Arg-Phe-Val-[β-Ala]-Leu-Nle-NH2] (H-DRFV[βAla]L[Nle]-NH2) | 104.9 ± 13.2% | 8.94 | 8.94 | 7.53 | 7.53 | 81.4 ± 1.2% | 
6 | CSCC[C@H](NC(=O)[C@H](CC(C)C)NC(=O)CCNC(=O)[C@@H](NC(=O)[C@H](Cc1ccccc1)NC(=O)[C@H](CCCNC(=N)N)NC(=O)[C@@H](N)CC(=O)O)C(C)C)C(N)=O [[Arg^5,β-Ala^8]-NKA(4–10), Asp-Arg-Phe-Val-[β-Ala]-Leu-Met-NH2] (H-DRFV[βAla]LM-NH2) | 101.5 ± 18.4% | 9.82 | 9.82 | 8.74 | 8.74 | 106.9 ± 8.9% | 
7 | CSCC[C@H](NC(=O)[C@H](CC(C)C)NC(=O)CNC(=O)[C@@H](NC(=O)[C@H](Cc1ccccc1)NC(=O)[C@H](CCCNC(=N)N)NC(=O)[C@@H](N)CC(=O)O)C(C)C)C(N)=O [[Arg^5]-NKA(4–10), Asp-Arg-Phe-Val-Gly-Leu-Met-NH2] (H-DRFVGLM-NH2) |  | 9.72 | 9.72 | 9.81 | 9.80 |  | 
8 | CCCC[C@H](NC(=O)[C@H](CC(C)C)NC(=O)CNC(=O)[C@@H](NC(=O)[C@H](Cc1ccccc1)NC(=O)[C@H](CCCCN)NC(=O)[C@@H](N)CC(=O)O)C(C)C)C(N)=O [[Lys^5,Nle^10]-NKA(4–10), Asp-Lys-Phe-Val-Gly-Leu-Nle-NH2] |  | 9.42 | 9.42 | 8.63 | 8.63 |  | 
9 | CCCC[C@H](NC(=O)[C@H](CC(C)C)NC(=O)CCNC(=O)[C@@H](NC(=O)[C@H](Cc1ccccc1)NC(=O)[C@H](CCCCN)NC(=O)[C@@H](N)CC(=O)O)C(C)C)C(N)=O [[Lys^5,β-Ala^8,Nle^10]-NKA(4–10), Asp-Lys-Phe-Val-[β-Ala]-Leu-Nle-NH2] (H-DKFV[βAla]L[Nle]-NH2) | 107.0 ± 14.0% | 8.52 | 8.52 | 7.11 | 7.11 | 83.1 ± 25.5% | 
10 | CSCC[C@H](NC(=O)[C@H](CC(C)C)NC(=O)CCNC(=O)[C@@H](NC(=O)[C@H](Cc1ccccc1)NC(=O)[C@H](CCCCN)NC(=O)[C@@H](N)CC(=O)O)C(C)C)C(N)=O [[Lys^5,β-Ala^8]-NKA(4–10), Asp-Lys-Phe-Val-[β-Ala]-Leu-Met-NH2] (H-DKFV[βAla]LM-NH2) | 105.8 ± 3.4% | 9.76 | 9.74 | 8.20 | 8.20 | 92.0 ± 3.8% | 
11 | CSCC[C@H](NC(=O)[C@H](CC(C)C)NC(=O)CNC(=O)[C@@H](NC(=O)[C@H](Cc1ccccc1)NC(=O)[C@H](CCCCN)NC(=O)[C@@H](N)CC(=O)O)C(C)C)C(N)=O [[Lys^5]-NKA(4–10), Asp-Lys-Phe-Val-Gly-Leu-Met-NH2] |  | 10.05 | 10.05 | 9.38 | 9.39 |  | 
